From patent US10538555B2, “Macrocyclic inhibitors of the PD-1/PD-L1 and CD80(B7-1)/PD-L1 protein/protein interactions” (BRISTOL-MYERS SQUIBB COMPANY, priority 2014, dated 2020)
Where two headings read alike, the source gives them in different places. *1 amine or outer side, *2 acyl side, *3 side chain or, on linkers, in order; H or OH if unused. Where a SMILES comes first, the peptide text is derived from it. Bridges are numbered along the chain shown (N, C = ends). [ ]: non-standard residue; d: D form. ξ: configuration not given here. Trp(1-CH2COOH) = N[C@@H](Cc1cn(CC(=O)O)c2ccccc12)C(=O)O; Phe(3,4,5-F3) = N[C@@H](Cc1cc(F)c(F)c(F)c1)C(=O)O; d(cisHyp) = O=C(O)[C@H]1C[C@@H](O)CN1; Bta = N[C@@H](Cc1csc2ccccc12)C(=O)O; Hyp = O=C(O)[C@@H]1C[C@@H](O)CN1; NMeAhp(2) = CCCCC[C@H](NC)C(=O)O; NMeF = CN[C@@H](Cc1ccccc1)C(=O)O; X1 = O=C([C@H]1COCCN1[*:1])[*:2]; Thr(3ξ) = CC(O)[C@H](N)C(=O)O; NMeNle = CCCC[C@H](NC)C(=O)O; NMeM = CN[C@@H](CCSC)C(=O)O; hSer = N[C@@H](CCO)C(=O)O; NMeA = CN[C@@H](C)C(=O)O; Orn = NCCC[C@H](N)C(=O)O; dThz = O=C(O)[C@H]1CSCN1; Dab = NCC[C@H](N)C(=O)O; ξP = O=C(O)C1CCCN1; ξC = NC(CS)C(=O)O

Biological target: T1, Human PD-L1/PD-1 (Homo sapiens, UniProt Q9NZQ7)
T1 construct: TVMV protease cleavage site (C); made in house; host or cells: HEK293T cells
Assay: HTRF Human PD-L1/PD-1 binding assay (PD-1-Ig/PD-L1-His)
Settings: PD-L1-His 10 nM, PD-1-Ig 20 nM
How it was run: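 Truncated Fc-fused human PD-1 (aa 25-167) at 20 nM and His-tagged PD-L1 (aa 18-239) at 10 nM final are used, with peptides preincubated 15 min with PD-L1. Detection uses europium-cryptate anti-Ig and APC anti-His antibodies; 665/620 nm ratio.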

[1] = class symbol, read-out: HTRF Human PD-L1/PD-1 Binding Assay IC50 Range
[2] = read-out: HTRF Human PD-L1/PD-1 Binding Assay IC50

T1 sequence (Q9NZQ7 with tags, fused parts or gaps): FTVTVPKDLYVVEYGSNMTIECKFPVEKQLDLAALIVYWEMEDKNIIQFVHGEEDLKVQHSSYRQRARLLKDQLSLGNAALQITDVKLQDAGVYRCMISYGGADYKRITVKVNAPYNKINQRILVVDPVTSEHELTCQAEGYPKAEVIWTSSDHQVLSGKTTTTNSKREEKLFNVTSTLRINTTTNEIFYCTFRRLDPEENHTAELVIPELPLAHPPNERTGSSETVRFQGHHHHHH

Structure (SMILES) | IC50 [1] | IC50 [2]
CCCC[C@H]1C(=O)N2CSC[C@@H]2C(=O)N[C@@H](CC(=O)O)C(=O)N[C@@H](C)C(=O)N(C)[C@@H](Cc2ccccc2)C(=O)N[C@@H](Cc2ccc(O)cc2)C(=O)N2CSC[C@@H]2C(=O)N[C@@H](Cc2c[nH]c3ccccc23)C(=O)N[C@@H](Cc2ccc(O)cc2)C(=O)N[C@@H](CC(C)C)C(=O)N[C@H](C(=O)NCC(N)=O)CSCC(=O)N[C@@H](Cc2ccccc2)C(=O)N(C)[C@@H](Cc2ccccc2)C(=O)N1C [Example 10078] ({CH2CO}-F[NMeF][NMeNle][dThz]DA[NMeF]Y[dThz]WYLCG-NH2; thioether N-13) | 10 to 99.9 nM | 
CCCC[C@H]1C(=O)N(C)[C@@H](CCCC)C(=O)N[C@@H](C(C)O)C(=O)N[C@H](C(=O)NCC(N)=O)CSCC(=O)N[C@@H](Cc2ccc(OC)cc2)C(=O)N(C)[C@@H](C)C(=O)N[C@@H](CC(N)=O)C(=O)N2CCC[C@H]2C(=O)N[C@@H](Cc2c[nH]cn2)C(=O)N[C@@H](CCC(N)=O)C(=O)N2C[C@H](O)C[C@H]2C(=O)N[C@@H](Cc2c[nH]c3ccccc23)C(=O)N[C@@H](CO)C(=O)N[C@@H](Cc2cn(CC(=O)O)c3ccccc23)C(=O)N1C (stereo partly drawn) [Example 7145] ({CH2CO}-Y(Me)[NMeA]NPHQ[Hyp]WS[Trp(1-CH2COOH)][NMeNle][NMeNle][Thr(3ξ)]CG-NH2; thioether N-14) | 1 to 9.9 nM | 
CCCC[C@H]1C(=O)N[C@@H](CC(N)=O)C(=O)N2CCC[C@H]2C(=O)N[C@@H](CO)C(=O)N[C@@H](CCO)C(=O)N2CCC[C@H]2C(=O)N[C@@H](Cc2c[nH]c3ccccc23)C(=O)N[C@@H](CO)C(=O)N[C@@H](Cc2c[nH]c3ccccc23)C(=O)N(C)[C@@H](C)C(=O)N(C)[C@@H](C)C(=O)N[C@@H](CCCN)C(=O)NC(C(=O)NCC(N)=O)CSCC(=O)N[C@@H](Cc2ccc(O)cc2)C(=O)N1C (stereo partly drawn) [Example 10210] ({CH2CO}-Y[NMeNle]NPS[hSer]PWSW[NMeA][NMeA][Orn][ξC]G-NH2; thioether N-14) | 1000 to 10000 nM | 
CCCC[C@H]1C(=O)N(C)[C@@H](C)C(=O)N[C@@H](CCCNC(=N)N)C(=O)NC(C(=O)N[C@@H](CO)C(N)=O)CSCC(=O)N[C@@H](Cc2ccc(O)cc2)C(=O)N(C)[C@@H](C)C(=O)N[C@@H](CC(N)=O)C(=O)N2CCC[C@H]2C(=O)N[C@@H](CO)C(=O)N[C@H](CC(C)C)C(=O)N2CCC[C@H]2C(=O)N[C@@H](Cc2c[nH]c3ccccc23)C(=O)N[C@@H](CO)C(=O)N[C@@H](Cc2c[nH]c3ccccc23)C(=O)N1C (stereo partly drawn) [Example 9121] ({CH2CO}-Y[NMeA]NPS[dL]PWSW[NMeNle][NMeA]R[ξC]S-NH2; thioether N-14) | 10 to 99.9 nM | 
CCCC[C@H]1C(=O)N(C)[C@@H](CCCC)C(=O)N[C@@H](CCCN)C(=O)N[C@H](C(=O)NCC(N)=O)CSCC(=O)N[C@@H](Cc2ccc(OC)cc2)C(=O)N(C)[C@@H](C)C(=O)N[C@@H](CC(=O)O)C(=O)N2CCC[C@H]2C(=O)N[C@@H](Cc2cnc[nH]2)C(=O)N[C@@H](CCC(=O)O)C(=O)N2C[C@H](O)C[C@H]2C(=O)N[C@@H](Cc2c[nH]c3ccccc23)C(=O)N[C@@H](CC(=O)O)C(=O)N[C@@H](Cc2c[nH]c3ccccc23)C(=O)N1C [Example 7099] ({CH2CO}-Y(Me)[NMeA]DPHE[Hyp]WDW[NMeNle][NMeNle][Orn]CG-NH2; thioether N-14) | 10 to 99.9 nM | 
CCCC[C@H]1C(=O)N2C[C@H](O)C[C@@H]2C(=O)N[C@@H](CC(=O)O)C(=O)N[C@@H](C(C)C)C(=O)N(C)[C@@H](Cc2ccccc2)C(=O)N[C@@H](Cc2ccc(O)cc2)C(=O)N2C[C@H](O)C[C@@H]2C(=O)N[C@@H](Cc2c[nH]c3ccccc23)C(=O)N[C@@H](Cc2ccc(O)cc2)C(=O)N[C@@H](CCN)C(=O)N[C@H](C(=O)NCC(N)=O)CSCC(=O)N[C@@H](Cc2cc(F)c(F)c(F)c2)C(=O)N(C)[C@@H](Cc2ccccc2)C(=O)N1C [Example 9324] ({CH2CO}-[Phe(3,4,5-F3)][NMeF][NMeNle][d(cisHyp)]DV[NMeF]Y[d(cisHyp)]WY[Dab]CG-NH2; thioether N-13) | 1 to 9.9 nM | 
CCCC[C@H]1C(=O)N(C)[C@@H](CCCC)C(=O)N[C@@H](CO)C(=O)N[C@H](C(=O)NCC(N)=O)CSCC(=O)N[C@@H](Cc2ccc(OC)cc2)C(=O)N(C)[C@@H](C)C(=O)N[C@@H](CC(N)=O)C(=O)N2CCC[C@H]2C(=O)N[C@@H](Cc2c[nH]cn2)C(=O)N[C@@H](CCC(N)=O)C(=O)N2C[C@H](O)C[C@H]2C(=O)N[C@@H](Cc2c[nH]c3ccccc23)C(=O)N[C@@H](CO)C(=O)N[C@@H](Cc2c[nH]c3ccccc23)C(=O)N1C [Example 7137] ({CH2CO}-Y(Me)[NMeA]NPHQ[Hyp]WSW[NMeNle][NMeNle]SCG-NH2; thioether N-14) | 1 to 9.9 nM | 
CCCCC[C@H]1C(=O)N[C@@H](CC(C)C)C(=O)N[C@H](C(=O)NCC(N)=O)CSCC(=O)N[C@@H](Cc2ccc(O)cc2)C(=O)N(C)[C@@H](C)C(=O)N[C@@H](CC(N)=O)C(=O)N2CCC[C@H]2C(=O)N[C@@H](Cc2cnc[nH]2)C(=O)N[C@@H](CCC(N)=O)C(=O)N2C[C@H](O)C[C@H]2C(=O)N[C@@H](Cc2c[nH]c3ccccc23)C(=O)N[C@@H](CCN)C(=O)N[C@@H](Cc2cn(CC(=O)O)c3ccccc23)C(=O)N(C)[C@@H](CCCC)C(=O)N1C [Example 6415] ({CH2CO}-Y[NMeA]NPHQ[Hyp]W[Dab][Trp(1-CH2COOH)][NMeNle][NMeAhp(2)]LCG-NH2; thioether N-14) |  | 177 nM
CSCC[C@H]1C(=O)N2C[C@H](O)C[C@H]2C(=O)N[C@@H](CC(N)=O)C(=O)N[C@@H](C(C)C)C(=O)N(C)[C@@H](Cc2ccccc2)C(=O)N[C@@H](Cc2ccc(O)cc2)C(=O)N2C[C@H](O)C[C@H]2C(=O)N[C@@H](Cc2c[nH]c3ccccc23)C(=O)N[C@@H](Cc2ccc(O)cc2)C(=O)N[C@@H](CC(C)C)C(=O)N[C@H](C(=O)NCC(N)=O)CSCC(=O)N[C@@H](Cc2ccccc2)C(=O)N(C)[C@@H](Cc2ccccc2)C(=O)N1C [Example 9167] ({CH2CO}-F[NMeF][NMeM][Hyp]NV[NMeF]Y[Hyp]WYLCG-NH2; thioether N-13) |  | 1000 nM
CCCC[C@H]1C(=O)N2C[C@H](O)C[C@@H]2C(=O)N[C@@H](CC(=O)O)C(=O)N[C@@H](C(C)C)C(=O)N(C)[C@@H](Cc2ccccc2)C(=O)N[C@@H](Cc2ccc(O)cc2)C(=O)N2CCOC[C@@H]2C(=O)N[C@@H](Cc2c[nH]c3ccccc23)C(=O)N[C@@H](Cc2ccc(OC)cc2)C(=O)N[C@@H](CCOC)C(=O)N[C@H](C(=O)NCC(N)=O)CSCC(=O)N[C@@H](Cc2cc(F)c(F)c(F)c2)C(=O)N(C)[C@@H](Cc2ccccc2)C(=O)N1C [Example 10179] ({CH2CO}-[Phe(3,4,5-F3)][NMeF][NMeNle][d(cisHyp)]DV[NMeF]Y[X1]WY(Me)[hSer](Me)CG-NH2; thioether N-13) | 10 to 99.9 nM | 
CCCC[C@H]1C(=O)N[C@@H](CC(N)=O)C(=O)N2CCC[C@H]2C(=O)N[C@@H](CO)C(=O)N[C@@H](CCO)C(=O)N2C[C@H](O)C[C@H]2C(=O)N[C@@H](Cc2c[nH]c3ccccc23)C(=O)N[C@@H](CO)C(=O)N[C@@H](Cc2c[nH]c3ccccc23)C(=O)N(C)[C@@H](C)C(=O)N(C)[C@@H](C)C(=O)N[C@@H](CCCCN)C(=O)NC(C(=O)NCC(N)=O)CSCC(=O)N[C@@H](Cc2ccc(O)cc2)C(=O)N1C (stereo partly drawn) [Example 10211] ({CH2CO}-Y[NMeNle]NPS[hSer][Hyp]WSW[NMeA][NMeA]K[ξC]G-NH2; thioether N-14) | 1000 to 10000 nM | 
CCCC[C@H]1C(=O)N2CCOC[C@@H]2C(=O)N[C@@H](CC(=O)O)C(=O)N[C@@H](C(C)C)C(=O)N(C)[C@@H](Cc2ccccc2)C(=O)N[C@@H](Cc2ccc(O)cc2)C(=O)N2CCOC[C@@H]2C(=O)N[C@@H](Cc2c[nH]c3ccccc23)C(=O)N[C@@H](Cc2ccc(O)cc2)C(=O)N[C@@H](CCCN)C(=O)N[C@H](C(=O)NCC(N)=O)CSCC(=O)N[C@@H](Cc2cc(F)c(F)c(F)c2)C(=O)N(C)[C@@H](Cc2ccccc2)C(=O)N1C [Example 9284] ({CH2CO}-[Phe(3,4,5-F3)][NMeF][NMeNle][X1]DV[NMeF]Y[X1]WY[Orn]CG-NH2; thioether N-13) | 1 to 9.9 nM | 
CCCC[C@H]1C(=O)N2C[C@H](O)C[C@@H]2C(=O)N[C@@H](CC(=O)O)C(=O)N[C@@H](C(C)C)C(=O)N(C)[C@@H](Cc2ccccc2)C(=O)N[C@@H](Cc2ccc(O)cc2)C(=O)N2C[C@H](O)C[C@@H]2C(=O)N[C@@H](Cc2c[nH]c3ccccc23)C(=O)N[C@@H](Cc2ccc(O)cc2)C(=O)N[C@@H](CC(N)=O)C(=O)N[C@H](C(=O)NCC(N)=O)CSCC(=O)N[C@@H](Cc2cc(F)c(F)c(F)c2)C(=O)N(C)[C@@H](Cc2ccccc2)C(=O)N1C [Example 9329] ({CH2CO}-[Phe(3,4,5-F3)][NMeF][NMeNle][d(cisHyp)]DV[NMeF]Y[d(cisHyp)]WYNCG-NH2; thioether N-13) | 1 to 9.9 nM | 
CCCC[C@H]1C(=O)N(C)[C@@H](CCCC)C(=O)N[C@@H](CCC(=O)O)C(=O)N[C@H](C(=O)NCC(N)=O)CSCC(=O)N[C@@H](Cc2ccc(O)cc2)C(=O)N(C)[C@@H](C)C(=O)N[C@@H](CC(N)=O)C(=O)N2CCCC2C(=O)N[C@@H](Cc2cnc[nH]2)C(=O)N[C@@H](CCC(N)=O)C(=O)N2C[C@H](O)C[C@H]2C(=O)N[C@@H](Cc2c[nH]c3ccccc23)C(=O)N[C@@H](CCN)C(=O)N[C@@H](Cc2cn(CC(=O)O)c3ccccc23)C(=O)N1C (stereo partly drawn) [Example 6288] ({CH2CO}-Y[NMeA]N[ξP]HQ[Hyp]W[Dab][Trp(1-CH2COOH)][NMeNle][NMeNle]ECG-NH2; thioether N-14) | 1 to 9.9 nM | 
CCCC[C@H]1C(=O)N(C)[C@@H](C)C(=O)N[C@@H](CCCNC(=N)N)C(=O)NC(C(=O)N[C@@H](CO)C(N)=O)CSCC(=O)N[C@@H](Cc2ccc(O)cc2)C(=O)N(C)[C@@H](C)C(=O)N[C@@H](CC(N)=O)C(=O)N2CCC[C@H]2C(=O)N[C@@H](CO)C(=O)N[C@H](CC(C)C)C(=O)N2C[C@H](O)C[C@H]2C(=O)N[C@@H](Cc2c[nH]c3ccccc23)C(=O)N[C@@H](CO)C(=O)N[C@@H](Cc2csc3ccccc23)C(=O)N1C (stereo partly drawn) [Example 9124] ({CH2CO}-Y[NMeA]NPS[dL][Hyp]WS[Bta][NMeNle][NMeA]R[ξC]S-NH2; thioether N-14) | 10 to 99.9 nM | 
